Values quoted from earlier work, collected in US20130184354A1, “Silicone and Hylauronic Acid (HLA) Delivery Systems for Products by Sustainable Processes for Medical Uses Including Wound Management” (priority 2012, published 2013).

Assays:
CB2 receptors = CB2 receptors (Homo sapiens, UniProt P34972)
[1] = compared with THC

Chain of CB2 receptors (P34972 whole entry): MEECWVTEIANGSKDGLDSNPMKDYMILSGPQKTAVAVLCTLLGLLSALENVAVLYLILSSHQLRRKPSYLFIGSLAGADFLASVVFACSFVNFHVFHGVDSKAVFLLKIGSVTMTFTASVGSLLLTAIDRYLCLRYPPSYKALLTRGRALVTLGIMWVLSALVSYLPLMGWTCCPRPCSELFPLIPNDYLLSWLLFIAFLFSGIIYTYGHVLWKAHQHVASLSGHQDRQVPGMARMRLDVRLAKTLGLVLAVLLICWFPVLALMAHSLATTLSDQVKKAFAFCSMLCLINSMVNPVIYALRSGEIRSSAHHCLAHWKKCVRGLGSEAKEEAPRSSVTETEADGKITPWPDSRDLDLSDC

Structure (SMILES) | affinity for CB2 receptors (CB2 receptors) | potency relative to THC [1]
C=C(C)[C@@H]1CCC(C)=C[C@H]1c1c(O)cc(CCCCC)cc1O [Cannabidiol] | no affinity | 
CCCCCCC(C)(C)c1cc(O)c2c(c1)OC(C)(C)[C@@H]1CC=C(CO)C[C@@H]21 [HU-210] |  | about 100 times
